Measured values published in PubChem BioAssay AID256 (DTP/NCI, 2004).
Several values for one entry are separate records, joined by “and”; a condition that tells them apart may be missing. Equal values may be shown once. Inconclusive results and toxic doses are left out.

Test system: CD2F1 mice, L1210 leukemia ip, survival T/C
Assay: NCI In Vivo Anticancer Drug Screen. Data for tumor model L1210 Leukemia (intraperitoneal) in CD2F1 (CDF1) mice
Conditions: higher = longer survival
Outline: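 Ratio T/C, where T is the treated-group value and C the vehicle-dosed control value, from mice implanted with a transplantable tumor.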

[1] = endpoint: mean survival time, dose: 6.25 mg/kg/injection, schedule: Q01DX009 (ip), vehicle: saline with Tween-80
[2] = endpoint: mean survival time, dose: 12.5 mg/kg/injection, schedule: Q01DX009 (ip), vehicle: saline with Tween-80
[3] = endpoint: mean survival time, dose: 25.0 mg/kg/injection, schedule: Q01DX009 (ip), vehicle: saline with Tween-80
[4] = endpoint: mean survival time, dose: 100.0 mg/kg/injection, schedule: Q01DX001 (ip), vehicle: saline with Tween-80
[5] = endpoint: mean survival time, dose: 200.0 mg/kg/injection, schedule: Q01DX001 (ip), vehicle: saline with Tween-80
[6] = endpoint: mean survival time, dose: 400.0 mg/kg/injection, schedule: Q01DX001 (ip), vehicle: saline with Tween-80
[7] = endpoint: mean survival time, dose: 25.0 mg/kg/injection, schedule: Q01DX001 (ip), vehicle: saline with Tween-80
[8] = endpoint: mean survival time, dose: 100.0 mg/kg/injection, schedule: Q01DX009 (ip), vehicle: saline with Tween-80
[9] = endpoint: mean survival time, dose: 100.0 mg/kg/injection, schedule: Q04DX003 (ip), vehicle: saline with Tween-80
[10] = endpoint: mean survival time, dose: 200.0 mg/kg/injection, schedule: Q01DX009 (ip), vehicle: saline with Tween-80
[11] = endpoint: mean survival time, dose: 200.0 mg/kg/injection, schedule: Q04DX003 (ip), vehicle: saline with Tween-80
[12] = endpoint: mean survival time, dose: 400.0 mg/kg/injection, schedule: Q01DX009 (ip), vehicle: saline with Tween-80
[13] = endpoint: mean survival time, dose: 400.0 mg/kg/injection, schedule: Q04DX003 (ip), vehicle: saline with Tween-80
[14] = endpoint: mean survival time, dose: 100.0 mg/kg/injection, schedule: Q01DX001 (ip), vehicle: saline
[15] = endpoint: mean survival time, dose: 200.0 mg/kg/injection, schedule: Q01DX001 (ip), vehicle: saline
[16] = endpoint: mean survival time, dose: 50.0 mg/kg/injection, schedule: Q01DX009 (ip), vehicle: saline with Tween-80
[17] = endpoint: mean survival time, dose: 100.0 mg/kg/injection, schedule: Q04DX003 (ip), vehicle: Klucel (hydroxypropylcellulose) (HPC)
[18] = endpoint: mean survival time, dose: 200.0 mg/kg/injection, schedule: Q04DX003 (ip), vehicle: Klucel (hydroxypropylcellulose) (HPC)

Nc1nc(N)nc(CBr)n1 was tested, and the T/C (endpoint: mean survival time, dose: 3.13 mg/kg/injection, schedule: Q01DX001 (ip), vehicle: Klucel (hydroxypropylcellulose) (HPC)) was 98 % of control, the T/C (endpoint: mean survival time, dose: 6.25 mg/kg/injection, schedule: Q01DX001 (ip), vehicle: Klucel (hydroxypropylcellulose) (HPC)) was 98 % of control and the T/C (endpoint: mean survival time, dose: 12.5 mg/kg/injection, schedule: Q01DX001 (ip), vehicle: Klucel (hydroxypropylcellulose) (HPC)) was 88 % of control.
With O=C(c1ccccc1)c1cc(Cl)ccc1N1C(=O)C=CC1=O the T/C [1] was 94 % of control, the T/C [2] was 95 % of control and the T/C [3] was 100 % of control.
For CC(=O)O/N=C(\C(c1ccccc1)c1ccccc1)C1c2ccccc2-c2ccccc21, the T/C [4] was 87 % of control, the T/C [5] was 87 % of control and the T/C [6] was 90 % of control.
In the case of CCCCCC(O)C1C(=O)OC(C)C(O)/C=C/C=C/C=C/C=C\C=C(\C)C(O)CC(O)CC(O)CC(O)CC(O)CC(O)CC1O (stereo unspecified), the T/C (endpoint: median survival time, dose: 3.12 mg/kg/injection, schedule: Q01DX009 (ip), vehicle: distilled water + alcohol) is reported as 104 % of control, the T/C (endpoint: median survival time, dose: 6.25 mg/kg/injection, schedule: Q01DX009 (ip), vehicle: distilled water + alcohol) is reported as 104 % of control and the T/C (endpoint: median survival time, dose: 12.5 mg/kg/injection, schedule: Q01DX009 (ip), vehicle: distilled water + alcohol) is reported as 104 % of control. For the same compound, the T/C (endpoint: median survival time, dose: 25.0 mg/kg/injection, schedule: Q01DX009 (ip), vehicle: distilled water + alcohol) was 100 % of control.
For Cc1ncc(COP(=O)(O)O)c(C=NC(C)C(=O)O)c1O.O.[Cu] (stereo unspecified), the T/C (endpoint: mean survival time, dose: 6.25 mg/kg/injection, schedule: Q01DX001 (ip), vehicle: saline with Tween-80) was 95 % of control, the T/C (endpoint: mean survival time, dose: 12.5 mg/kg/injection, schedule: Q01DX001 (ip), vehicle: saline with Tween-80) was 92 % of control and the T/C [7] was 103 % of control.
C1CC(N2CC2)CCC1N1CC1 (stereo unspecified) was tested, and the T/C (endpoint: mean survival time, dose: 6.0 mg/kg/injection, schedule: Q04DX003 (ip), vehicle: saline) was 169 % of control, the T/C (endpoint: mean survival time, dose: 9.0 mg/kg/injection, schedule: Q04DX003 (ip), vehicle: saline) was 124 % of control and the T/C (endpoint: mean survival time, dose: 13.0 mg/kg/injection, schedule: Q04DX003 (ip), vehicle: saline) was 110 % of control. The T/C (endpoint: mean survival time, dose: 20.0 mg/kg/injection, schedule: Q04DX003 (ip), vehicle: saline) was 86 % of control.
COC(=O)c1cc(C)[nH]c(=O)c1C#N was tested, and the T/C [8] was 100 % of control, the T/C [9] was 95 % of control and the T/C [10] was 100 % of control. The T/C [11] was 98 % of control, the T/C [12] was 94 % of control and the T/C [13] was 96 % of control.
O=C(Nc1ccc(-c2cc(-c3ccccc3)on2)cc1)c1ccccc1 was tested, and the T/C [9] was 90 % of control, the T/C [11] was 88 % of control and the T/C [13] was 88 % of control.
With COc1ccc(C(C(N)=O)N2CCCC2)cc1 (stereo unspecified) the T/C [8] was 89 % of control and the T/C [10] was 90 % of control.
CC(C)/C=N\O was tested, and the T/C (endpoint: mean survival time, dose: 50.0 mg/kg/injection, schedule: Q01DX001 (ip), vehicle: saline) was 107 % of control, the T/C [14] was 110 % of control and the T/C [15] was 107 % of control.
With CN(C)N=Nc1cc(C(N)=O)cc(C(N)=O)c1 the T/C (endpoint: mean survival time, dose: 18.75 mg/kg/injection, schedule: Q01DX009 (ip), vehicle: Klucel (hydroxypropylcellulose) (HPC)) was 101 % of control, the T/C (endpoint: mean survival time, dose: 37.5 mg/kg/injection, schedule: Q01DX009 (ip), vehicle: Klucel (hydroxypropylcellulose) (HPC)) was 106 % of control and the T/C (endpoint: mean survival time, dose: 75.0 mg/kg/injection, schedule: Q01DX009 (ip), vehicle: Klucel (hydroxypropylcellulose) (HPC)) was 124 % of control.
In the case of N/C(=N\O)c1ccccc1, the T/C [16] is reported as 103 % of control, the T/C [8] is reported as 98 % of control and the T/C [10] is reported as 90 % of control.
In the case of O=c1[nH]c(/C=C/C=C/c2ccccc2)c([N+](=O)[O-])c(=O)[nH]1, the T/C (endpoint: mean survival time, dose: 50.0 mg/kg/injection, schedule: Q04DX002 (ip), vehicle: Klucel (hydroxypropylcellulose) (HPC)) is reported as 98 % of control, the T/C (endpoint: mean survival time, dose: 100.0 mg/kg/injection, schedule: Q04DX002 (ip), vehicle: Klucel (hydroxypropylcellulose) (HPC)) is reported as 91 % of control and 94 % of control and the T/C (endpoint: mean survival time, dose: 200.0 mg/kg/injection, schedule: Q04DX002 (ip), vehicle: Klucel (hydroxypropylcellulose) (HPC)) is reported as 88 % of control and 94 % of control. For the same compound, the T/C (endpoint: mean survival time, dose: 400.0 mg/kg/injection, schedule: Q04DX002 (ip), vehicle: Klucel (hydroxypropylcellulose) (HPC)) was 98 % of control.
With OCC1OC(n2cnc3c(SSc4ncnc5c4ncn5C4CC(O)C(CO)O4)ncnc32)CC1O (stereo unspecified) the T/C (endpoint: mean survival time, dose: 178.0 mg/kg/injection, schedule: Q01DX001 (ip), vehicle: saline) was 114 % of control.
For CN=S(=O)(OCCCCCOS(=O)(=NC)c1ccc(C)cc1)c1ccc(C)cc1 (stereo unspecified), the T/C (endpoint: mean survival time, dose: 0.39 mg/kg/injection, schedule: Q01DX009 (ip), vehicle: saline with Tween-80) was 97 % of control, the T/C (endpoint: mean survival time, dose: 0.78 mg/kg/injection, schedule: Q01DX009 (ip), vehicle: saline with Tween-80) was 103 % of control and the T/C (endpoint: mean survival time, dose: 1.56 mg/kg/injection, schedule: Q01DX009 (ip), vehicle: saline with Tween-80) was 97 % of control. For the same compound, the T/C (endpoint: mean survival time, dose: 3.12 mg/kg/injection, schedule: Q01DX009 (ip), vehicle: saline with Tween-80) was 105 % of control, the T/C [1] was 95 % of control and 100 % of control and the T/C [2] was 97 % of control and 101 % of control. For the same compound, the T/C [3] was 103 % of control, the T/C [16] was 97 % of control and the T/C [8] was 101 % of control. The T/C [10] was 100 % of control.
With S=c1n(Cc2ccccc2)cnc2ncnn12 the T/C [17] was 98 % of control and the T/C [18] was 111 % of control.
For Cc1cc([N+](=O)[O-])ccc1S(=O)(=O)F, the T/C (endpoint: mean survival time, dose: 25.0 mg/kg/injection, schedule: Q04DX003 (ip), vehicle: saline with Tween-80) was 95 % of control, the T/C (endpoint: mean survival time, dose: 50.0 mg/kg/injection, schedule: Q04DX003 (ip), vehicle: saline with Tween-80) was 98 % of control and the T/C [9] was 98 % of control.
For NC(=O)c1csc(CSCCO)n1, the T/C (endpoint: median survival time, dose: 41.75 mg/kg/injection, schedule: Q01DX005 (ip), vehicle: saline) was 103 % of control, the T/C (endpoint: median survival time, dose: 83.5 mg/kg/injection, schedule: Q01DX005 (ip), vehicle: saline) was 104 % of control and the T/C (endpoint: median survival time, dose: 167.0 mg/kg/injection, schedule: Q01DX005 (ip), vehicle: saline) was 102 % of control. The T/C (endpoint: median survival time, dose: 334.0 mg/kg/injection, schedule: Q01DX005 (ip), vehicle: saline) was 98 % of control.
With Cc1nc2c(c(-c3ccccc3)n1)Cc1ccccc1O2 the T/C [14] was 98 % of control, the T/C [15] was 98 % of control and the T/C (endpoint: mean survival time, dose: 400.0 mg/kg/injection, schedule: Q01DX001 (ip), vehicle: saline) was 101 % of control.
With CCN(CCP(c1ccccc1)c1ccccc1)CCP(c1ccccc1)c1ccccc1 the T/C (endpoint: mean survival time, dose: 150.0 mg/kg/injection, schedule: Q01DX001 (ip), vehicle: other) was 110 % of control and the T/C (endpoint: mean survival time, dose: 300.0 mg/kg/injection, schedule: Q01DX001 (ip), vehicle: other) was 115 % of control.
With COC(=O)C1C2CC(OS(=O)(=O)c3ccc(C)cc3)C(C2)C1C(=O)OC (stereo unspecified) the T/C [4] was 93 % of control, the T/C [8] was 98 % of control and the T/C [5] was 95 % of control. For the same compound, the T/C [10] was 91 % of control, the T/C [6] was 92 % of control and the T/C [12] was 95 % of control.
With Cn1c(CC(O)(C(F)(F)F)C(F)(F)F)cc2ccccc21 the T/C (endpoint: mean survival time, dose: 100.0 mg/kg/injection, schedule: Q01DX001 (ip), vehicle: other) was 106 % of control, the T/C (endpoint: mean survival time, dose: 200.0 mg/kg/injection, schedule: Q01DX001 (ip), vehicle: other) was 92 % of control and the T/C (endpoint: mean survival time, dose: 400.0 mg/kg/injection, schedule: Q01DX001 (ip), vehicle: other) was 95 % of control.
For COC1OC2COC(c3ccccc3)OC2/C(=N/O)C1[n+]1ccccc1 (stereo unspecified), the T/C [7] was 94 % of control, the T/C (endpoint: mean survival time, dose: 50.0 mg/kg/injection, schedule: Q01DX001 (ip), vehicle: saline with Tween-80) was 107 % of control and the T/C [4] was 98 % of control and 102 % of control.
CC1(C)C(=O)OC(n2ccc(=O)[nH]c2=O)C1=O (stereo unspecified) was tested, and the T/C (endpoint: median survival time, dose: 12.5 mg/kg/injection, schedule: Q01DX005 (ip), vehicle: saline) was 103 % of control, the T/C (endpoint: median survival time, dose: 25.0 mg/kg/injection, schedule: Q01DX005 (ip), vehicle: saline) was 103 % of control and the T/C (endpoint: median survival time, dose: 50.0 mg/kg/injection, schedule: Q01DX005 (ip), vehicle: saline) was 101 % of control. For the same compound, the T/C (endpoint: median survival time, dose: 100.0 mg/kg/injection, schedule: Q01DX005 (ip), vehicle: saline) was 103 % of control and the T/C (endpoint: median survival time, dose: 200.0 mg/kg/injection, schedule: Q01DX005 (ip), vehicle: saline) was 103 % of control.
In the case of CC[P+]1(c2ccccc2)CCCc2ccc3ccccc3c21 (stereo unspecified), the T/C (endpoint: mean survival time, dose: 12.5 mg/kg/injection, schedule: Q04DX003 (ip), vehicle: saline) is reported as 117 % of control and the T/C (endpoint: mean survival time, dose: 25.0 mg/kg/injection, schedule: Q04DX003 (ip), vehicle: saline) is reported as 110 % of control.
For COc1cccc(CCCC(=O)O)c1, the T/C [17] was 101 % of control, the T/C [18] was 101 % of control and the T/C (endpoint: mean survival time, dose: 400.0 mg/kg/injection, schedule: Q04DX003 (ip), vehicle: Klucel (hydroxypropylcellulose) (HPC)) was 101 % of control.
